“Also recorded” adds a separate entry of the source.
Tests used:
Lewis rats = experiment: Blood Lymphocyte Reduction (BLR) Assay in rat; format: in vivo; conditions: for Percent reduction vs. control at 24 hr post-dose (blood lymphocytes): rat, oral, 0.1 mg/kg
Procedure: (§1) Blood Lymphocyte Reduction (BLR) Assay in Rodent:
(§2) Lewis rats or BALB/c mice were dosed orally with vehicle alone (polyethylene glycol 300, “PEG300”) or with test compounds. Compounds were dosed as a solution or suspension in the vehicle, adjusted to reflect the free amount of test article in the event that salt forms are utilized. Blood was drawn at 24 hr and blood lymphocyte counts were determined on an ADVIA 120 Hematology Analyzer (Siemens Healthcare Diagnostics). The results were measured as a reduction in the percentage of circulating lymphocytes as compared to the vehicle treated group at the time of measurement. The results represent the average results of all animals within each treatment group (n=2-4).

Male Lewis rats = experiment: Rat Adjuvant Induced Arthritis Assay (AA); format: in vivo; conditions: prophylactic oral dosing regimen
Procedure: Rat Adjuvant Induced Arthritis Assay (AA)
The rat adjuvant-induced arthritis model is an animal model for human rheumatoid arthritis.
Male Lewis rats (150-175 g; Harlan, n=8 treatment group) were immunized at the base of the tail with 100 μl of 10 mg/ml freshly ground Mycobacterium butyricum (Difco Laboratories) in incomplete Freund's adjuvant (sigma). Animals were dosed once daily with the test article (as a solution or suspension in the vehicle) or vehicle alone (polyethylene glycol 300, “PEG300”) starting from the day of immunization. The volumes of their hind paws were measured in a water displacement plethysmometer (Ugo Basile, Italy). The baseline paw measurements were taken before onset of the disease (between day 7 to day 10). The paw measurements were then taken three times a week until the end of the study on day 20 to 21. All procedures involving animals were reviewed and approved by the Institutional Animal Care Use Committee.

Female Lewis rats = experiment: Rat Experimental Autoimmune Encephalomyelitis (EAE); format: in vivo; conditions: prophylactic oral dosing regimen
Procedure: Rat Experimental Autoimmune Encephalomyelitis (EAE)
Female Lewis rats (150-200 g; Harlan) were immunized at the base of the tail with 0.1 ml of a complete Freund's adjuvant emulsion containing 0.5 mg/mL guinea pig myelin basic protein (Genemed Synthesis) and 2 mg/mL Mycobacterium butyricum (Difco). Beginning on Day 7, rats (n=11/group) were scored individually at least 3×/wk according to the following scheme:
Average clinical scores were calculated for each treatment group on each day of assessment.

C57BL/6 mice = experiment: Mouse Experimental Autoimmune Encephalomyelitis Assay (EAE); format: in vivo; conditions: for inhibition of disease progression as measured by clinical scores: C57Bl/6 mice, prophylactic oral dosing regimen; for Clinical scores on day 22, Mean: C57BL/6 mice, prophylactic, vehicle mean 4.1
Procedure: Mouse Experimental Autoimmune Encephalomyelitis Assay (EAE)
Mice (C57BL/6 female, 6-8 weeks of age, Charles River, n=10 treatment group) were immunized subcutaneously with 150 μg MOG35-55 emulsified 1:1 with incomplete Freund's adjuvant (sigma) supplemented with 150 μg Mycobacterium tuberculosis H37RA (Difco Laboratories). 400 ng of pertussis toxin (CalBiochem) was injected intraperitoneally on the day of immunization and 2 day later. Clinical scoring and body weight were taken 3 times per week. Clinical scoring system: 0.5: partial tail weakness; 1: limp tail or waddling gait with tail tonicity; 1.5: waddling gait with partial tail weakness; 2: waddling gait with limp tail (ataxia); 2.5: ataxia with partial limb paralysis; 3: full paralysis of one limb; 3.5: full paralysis of one limbs with partial paralysis of a second limb; 4: full paralysis of two limbs; 4.5: moribund; 5: death. Mean clinical score was calculated by averaging the scores of all mice in each group. All procedures involving animals were reviewed and approved by the Institutional Animal Care Use Committee.

BALB/c mice = experiment: Blood Lymphocyte Reduction (BLR) Assay in mouse; format: in vivo
Procedure: as §1, §2

Male MRL/lpr mice = experiment: MRL/lpr Lupus Model (anti-dsDNA antibody titers, kidney histology); format: in vivo, mouse; conditions: for Anti-dsDNA antibody titers (23 weeks of age) (Mean): ratio to pooled MRL/lpr immune serum titer; for Kidney Histology (nephritis) 23 weeks of age (Mean): total score, highest possible 36
Procedure: MRL/lpr is a spontaneous model of lupus. Male MRL/lpr mice (Jackson Laboratory) at the age of 12-14 weeks were enrolled for the study (N=12). Mice were dosed p.o. daily with vehicle (18.4% (w/v) hydroxypropyl-b-cyclodextrin in 13.8 mM citric acid) or with Example 681 at 0.06, 0.3, 1.5 mg/kg. Mice were bled every other week for anti-dsDNA antibodies measured by ELISA using pooled serum from diseased MRL/lpr mice as a positive comparator in each assay. The data were expressed in arbitrary units as a ratio of the titer of the test serum to the titer of the pooled MRL/lpr immune serum.
At the end of study, one kidney was collected into 10% neutral buffered formalin and ZincTris fixatives. Fixed tissues were processed into paraffin blocks, sectioned at 3p m, and stained with H&E or PASH. Kidney sections were graded using following criteria: Glomerular Damage: 1. Mesangial matrix thickening, cell proliferation, 2. Crescent formation, cellular deposits/casts in Bowman's space, 3. Cellular infiltration, mononuclear cells in glomerular tufts, 4. Fibrosis of Bowman's capsule. Tubular damage: 1. Infiltration of mononuclear cells, 2. Severity of tubular damage, 3. Protein casts. Tubulo-interstitial damage: 1. Fibrosis, 2. Infiltration of mononuclear cells. Each subcategory was assigned a score from 0-4, with the scores for glomerular indices representing the mean from 20 glomeruli per kidney. The total score for each mouse was the sum of the above 9 subcategories, with the highest possible score=36.

## COCCCCCC1CCc2cc([C@@H]3CC[C@](N)(CO)C3)ccc2C1 (single isomer, unassigned) [Example 674]
Lewis rats
  Percent reduction vs. control at 24 hr post-dose (blood lymphocytes): 30%

## COCCCCCC1CCc2cc([C@@H]3CC[C@](N)(CO)C3)ccc2C1 (single isomer, unassigned) [Example 675]
Lewis rats
  Percent reduction vs. control at 24 hr post-dose (blood lymphocytes): 63%

## COCCCCC[C@H]1CCc2cc([C@H]3CC[C@](N)(CO)C3)ccc2C1 [Example 672, ((1R,3S)-1-amino-3-((S)-6-(5-methoxypentyl)-5,6,7,8-tetrahydronaphthalen-2-yl)cyclopentyl)methanol]
Male Lewis rats
  inhibition of disease progression as measured by reduced paw swelling: showed inhibition of disease progression

## CCOCCC[C@H]1CCc2cc([C@H]3CC[C@](N)(CO)C3)ccc2C1 [Example 678, ((1R,3S)-1-amino-3-((R)-6-(3-ethoxypropyl)-5,6,7,8-tetrahydronaphthalen-2-yl)cyclopentyl)methanol]
Lewis rats
  Percent reduction vs. control at 24 hr post-dose (blood lymphocytes): 16%

## CCOCCC[C@@H]1CCc2cc([C@H]3CC[C@](N)(CO)C3)ccc2C1 [Example 679, ((1R,3S)-1-amino-3-((S)-6-(3-ethoxypropyl)-5,6,7,8-tetrahydronaphthalen-2-yl)cyclopentyl)methanol]
Lewis rats
  Percent reduction vs. control at 24 hr post-dose (blood lymphocytes): 65%
Female Lewis rats
  inhibition of disease progression as measured by reduced clinical scores: showed inhibition of disease progression
Male Lewis rats
  inhibition of disease progression as measured by reduced paw swelling: showed inhibition of disease progression
C57BL/6 mice
  inhibition of disease progression as measured by clinical scores: showed inhibition of disease progression; also recorded: inhibit disease progression

## COc1ccccc1CC[C@H]1CCc2cc([C@H]3CC[C@](N)(CO)C3)ccc2C1 [Example 682, ((1R,3S)-1-amino-3-((R)-6-(2-methoxyphenethyl)-5,6,7,8-tetrahydronaphthalen-2-yl)cyclopentyl)methanol]
Lewis rats
  Percent reduction vs. control at 24 hr post-dose (blood lymphocytes): 17%

## ((1R,3S)-1-amino-3-((S)-6-(2-methoxyphenethyl)-5,6,7,8-tetrahydronaphthalen-2-yl)cyclopentyl)methanol [Example 681]
Lewis rats
  Percent reduction vs. control at 24 hr post-dose (blood lymphocytes): 53%
Lewis rats; rodent BLR assay, 0.1 mg/kg oral, 24 hours post-dose, versus vehicle group
  lymphocyte reduction: 53%
BALB/c mice; mice, 0.5 mg/kg oral, 24 hours post dose
  lymphocyte reduction: 85%
BALB/c mice; mouse, oral, 0.5 mg/kg, 24 hr post-dose
  Mouse Blood Lymphocyte Reduction Assay at 24 hr post-dose Percent reduction vs. control: 85%
C57BL/6 mice; 0.1 mg/kg oral
  Clinical scores on day 22, Mean: 3.1
C57BL/6 mice; 0.5 mg/kg oral
  Clinical scores on day 22, Mean: 1.1
C57BL/6 mice; 2 mg/kg oral
  Clinical scores on day 22, Mean: 0.8
C57BL/6 mice
  inhibition of disease progression as measured by clinical scores: showed inhibition of disease progression; also recorded: inhibit disease progression
Male MRL/lpr mice; 0.06 mg/kg p.o. daily
  Anti-dsDNA antibody titers (23 weeks of age) (Mean): 1.861 arbitrary units
  Kidney Histology (nephritis) 23 weeks of age (Mean): 10.13
Male MRL/lpr mice; 0.3 mg/kg p.o. daily
  Anti-dsDNA antibody titers (23 weeks of age) (Mean): 0.978 arbitrary units
  Kidney Histology (nephritis) 23 weeks of age (Mean): 10.00
Male MRL/lpr mice; 1.5 mg/kg p.o. daily
  Anti-dsDNA antibody titers (23 weeks of age) (Mean): 1.023 arbitrary units
  Kidney Histology (nephritis) 23 weeks of age (Mean): 12.63
Male MRL/lpr mice; p.o. daily
  inhibition of disease progression as measured by anti-dsDNA titers: showed inhibition of disease progression
  inhibition of disease progression as measured by kidney histology: showed inhibition of disease progression

Reference: patent publication US11701373B2, “Substituted bicyclic compounds” (BRISTOL-MYERS SQUIBB COMPANY, priority 2014, dated 2023)
